Source: patent publication US4603198A, “Cephalosporin derivatives” (Daiichi Seiyaku Co., Ltd., priority 1982, dated 1986)
Values after ≈ are worked out from the molar mass of the structure shown. Counter-ions that a name gives are not always drawn.

How the values were obtained:
Ps. aeruginosa, 32121 = test: antibacterial activity (in vitro), Minimum Inhibitory Concentration; assay type: cell-based; conditions: Pseudomonas aeruginosa, 10^6 /ml of bacteria were seeded, syn isomers
Description: (§1) The antibacterial activity (in vitro) of the preferred compounds of this invention are shown in the following Table 1 in comparison with known compounds having a structure similar to that of the compounds of this invention. All compounds of Table 1 are syn isomers.
(§2) Minimum Inhibitory Concentration (MIC, mcg/ml) (10^6 /ml of bacteria

S. aureus, 209p = test: as above; assay type: cell-based; conditions: Staphylococcus aureus, 10^6 /ml of bacteria were seeded, syn isomers
Description: as §1, §2

E. coli, NIHJ = test: as above; assay type: cell-based; conditions: Escherichia coli, 10^6 /ml of bacteria were seeded, syn isomers
Description: as §1, §2

Ps. aeruginosa, 32104 = test: as above; assay type: cell-based; conditions: Pseudomonas aeruginosa, 10^6 /ml of bacteria were seeded, syn isomers
Description: as §1, §2

Ser. marcescens, 10104 = test: as above; assay type: cell-based; conditions: Serratia marcescens, 10^6 /ml of bacteria were seeded, syn isomers
Description: as §1, §2

Pr. vulgaris, 08601 = test: as above; assay type: cell-based; conditions: Proteus vulgaris, 10^6 /ml of bacteria were seeded, syn isomers
Description: as §1, §2

[1] = acute toxicity in mice (i.v.); conditions: mouse, in vivo, iv

SMILES | MIC (Ps. aeruginosa, 32121) | MIC (S. aureus, 209p) | MIC (E. coli, NIHJ) | MIC (Ps. aeruginosa, 32104) | MIC (Ser. marcescens, 10104) | MIC (Pr. vulgaris, 08601) | LD50 [1]
Cc1[nH]cnc1CO/N=C(\C(=O)N[C@@H]1C(=O)N2C(C(=O)[O-])=C(C[n+]3ccccc3)CS[C@H]12)c1csc(N)n1 [IF, 7β-(2-(2-aminothiazol-4-yl)-2-((5-methylimidazol-4-yl)methoxyimino)acetamido)-3-(1-pyridino)methyl-3-cephem-4-carboxylate trihydrochloride] | 3.13 µg/mL | 0.78 µg/mL | < 0.1 µg/mL | 3.13 µg/mL | 0.2 µg/mL | 0.1 µg/mL | 
Nc1nc(/C(=N/OCc2nnn[nH]2)C(=O)N[C@@H]2C(=O)N3C(C(=O)[O-])=C(C[n+]4ccccc4)CS[C@H]23)cs1 [b, 7β-(2-(2-aminothiazol-4-yl)-2-((1H-tetrazol-5-yl)methoxyimino)acetamido)-3-pyridiniomethyl-3-cephem-4-carboxylate, reference compound] | 50 µg/mL (≈ 92.2 µM) | 3.13 µg/mL (≈ 5.77 µM) | 0.1 µg/mL (≈ 0.184 µM) | 12.5 µg/mL (≈ 23 µM) | 0.39 µg/mL (≈ 0.719 µM) | 0.1 µg/mL (≈ 0.184 µM) | 
CC(=O)OCC1=C(C(=O)O)N2C(=O)[C@@H](NC(=O)/C(=N\OCc3c[nH]cn3)c3csc(N)n3)[C@H]2SC1 [IH, 7β-(2-(2-aminothiazol-4-yl)-2-((imidazol-4-yl)methoxyimino)acetamido)-3-acetoxymethyl-3-cephem-4-carboxylic acid dihydrochloride] | 6.25 µg/mL | 0.78 µg/mL | < 0.1 µg/mL | 12.5 µg/mL | 0.78 µg/mL | < 0.1 µg/mL | 
Cn1nnnc1SCC1=C(C(=O)O)N2C(=O)[C@@H](NC(=O)/C(=N\OCc3c[nH]cn3)c3csc(N)n3)[C@H]2SC1 [ID, 7β-(2-(2-aminothiazol-4-yl)-2-((imidazol-4-yl)methoxyimino)acetamido)-3-(1-methyl-1H-tetrazol-5-yl)thiomethyl-3-cephem-4-carboxylic acid dihydrochloride] | 3.13 µg/mL | 0.78 µg/mL | < 0.1 µg/mL | 12.5 µg/mL | 0.39 µg/mL | < 0.1 µg/mL | 
CO/N=C(\C(=O)N[C@@H]1C(=O)N2C(C(=O)O)=C(COC(C)=O)CS[C@H]12)c1csc(N)n1 [a, Cephotaxim, reference compound] | 12.5 µg/mL (≈ 27.4 µM) | 3.13 µg/mL (≈ 6.87 µM) | < 0.1 µg/mL | 25 µg/mL (≈ 54.9 µM) | 0.39 µg/mL (≈ 0.856 µM) | < 0.1 µg/mL | 
Nc1nc(/C(=N/OCc2c[nH]cn2)C(=O)N[C@@H]2C(=O)N3C(C(=O)[O-])=C(C[n+]4ccccc4)CS[C@H]23)cs1 [IA, 7β-(2-(2-aminothiazol-4-yl)-2-((imidazol-4-yl)methoxyimino)acetamido)-3-(1-pyridinio)methyl-3-cephem-4-carboxylate trihydrochloride] | 1.56 µg/mL | 0.2 µg/mL | 0.1 µg/mL | 1.56 µg/mL | 0.1 µg/mL | 0.1 µg/mL | > 2500 mg/kg
Nc1nc(/C(=N/OCc2cn[nH]c2)C(=O)N[C@@H]2C(=O)N3C(C(=O)[O-])=C(C[n+]4ccccc4)CS[C@H]23)cs1 [IE, 7β-(2-(2-aminothiazol-4-yl)-2-((pyrazol-4-yl)methoxyimino)acetamido)-3-(1-pyridinio)methyl-3-cephem-4-carboxylate] | 3.13 µg/mL (≈ 5.79 µM) | 0.2 µg/mL (≈ 0.37 µM) | < 0.1 µg/mL | 6.25 µg/mL (≈ 11.6 µM) | 0.2 µg/mL (≈ 0.37 µM) | 0.1 µg/mL (≈ 0.185 µM) | 
Nc1nc(/C(=N/OCc2ncc[nH]2)C(=O)N[C@@H]2C(=O)N3C(C(=O)[O-])=C(C[n+]4ccccc4)CS[C@H]23)cs1 [c, 7β-(2-(2-aminothiazol-4-yl)-2-((imidazol-2-yl)methoxyimino)acetamido)-3-pyridiniomethyl-3-cephem-4-carboxylate, reference compound] | 25 µg/mL (≈ 46.2 µM) | 1.56 µg/mL (≈ 2.89 µM) | 0.2 µg/mL (≈ 0.37 µM) | 6.25 µg/mL (≈ 11.6 µM) | 0.2 µg/mL (≈ 0.37 µM) | 0.39 µg/mL (≈ 0.721 µM) | 
Cc1cc[n+](CC2=C(C(=O)[O-])N3C(=O)[C@@H](NC(=O)/C(=N\OCc4c[nH]cn4)c4csc(N)n4)[C@H]3SC2)cc1 [IG, 7β-(2-(2-aminothiazol-4-yl)-2-((imidazol-4-yl)methoxyimino)acetamido)-3-(4-methyl-1-pyridinio)methyl-3-cephem-4-carboxylate trihydrochloride] | 3.13 µg/mL | 1.56 µg/mL | < 0.1 µg/mL | 3.13 µg/mL | 0.1 µg/mL | 0.2 µg/mL | 
NC(=O)c1cc[n+](CC2=C(C(=O)[O-])N3C(=O)[C@@H](NC(=O)/C(=N\OCc4c[nH]cn4)c4csc(N)n4)[C@H]3SC2)cc1 [IB, 7β-(2-(2-aminothiazol-4-yl)-2-((imidazol-4-yl)methoxyimino)acetamido)-3-(4-carbamoyl-1-pyridinio)methyl-3-cephem-4-carboxylate trihydrochloride] | 12.5 µg/mL | 1.56 µg/mL | < 0.1 µg/mL | 1.56 µg/mL | 0.2 µg/mL | 0.2 µg/mL | 
Nc1nc(/C(=N/OCc2cc[nH]n2)C(=O)N[C@@H]2C(=O)N3C(C(=O)[O-])=C(C[n+]4ccccc4)CS[C@H]23)cs1 [IC, 7β-(2-(2-aminothiazol-4-yl)-2-((pyrazol-3-yl)methoxyimino)acetamido)-3-(1-pyridinio)methyl-3-cephem-4-carboxylate] | 3.13 µg/mL (≈ 5.79 µM) | 0.39 µg/mL (≈ 0.721 µM) | < 0.1 µg/mL | 1.56 µg/mL (≈ 2.89 µM) | 0.2 µg/mL (≈ 0.37 µM) | 0.1 µg/mL (≈ 0.185 µM) | > 2000 mg/kg
